Test results taken from US20240209001A1, “HETEROCYCLIC DERIVATIVES AS JANUS KINASE INHIBITORS” (CHIESI FARMACEUTICI S.P. A., priority 2021, published 2024).

Key:
[1] = system: IL-2 induced phosphorylation of STAT5 (JAK1/JAK3 activity) in human peripheral blood mononuclear cells (PBMCs); test: Cell based assay PBMC (IL-2 stimulated pSTAT5); details: 0.5 h, rh IL-2, 30 min incubation, pSTAT5 ELISA, read-out: Cell Based assay PBMC (IL-2 stimulated pSTAT5), data displayed as pIC50 (converted)
Protocol: In addition to enzymatic potency, the effects of the inhibitors against JAK1/JAK3 activity in a cellular assay was characterized against IL-2 induced phosphorylation of STAT5 level in human peripheral blood mononuclear cells (PBMCs).
PBMC have been isolated from human healthy volunteers. Cells were seeded in wells and treated with compounds and rh IL-2. After 30 min incubation cells were lysed and pSTAT5 determined by PathScan phospho-stat5 (Tyr694) ELISA (Cell signaling). Inhibitors were tested at 11 consecutive 5-fold dilutions starting from 30 μM (30 μM-[…]) in duplicate. Calculation of IC50 data, curves and QC analysis were made using Excel tools and GraphPadPrism software. QC criteria parameters: Z′≥0.35, Hill Slope range 0.5 to 5, S:B>2.

JAK 1 [2] = molecular target: T1, JAK 1 (Homo sapiens (Human), UniProt P23458); test: Biochemical potency JAK1, TR-FRET LANCE Ultra kinase assay (examples 1a-10a); details: ATP corresponding to Km
T1 sequence (P23458 whole entry): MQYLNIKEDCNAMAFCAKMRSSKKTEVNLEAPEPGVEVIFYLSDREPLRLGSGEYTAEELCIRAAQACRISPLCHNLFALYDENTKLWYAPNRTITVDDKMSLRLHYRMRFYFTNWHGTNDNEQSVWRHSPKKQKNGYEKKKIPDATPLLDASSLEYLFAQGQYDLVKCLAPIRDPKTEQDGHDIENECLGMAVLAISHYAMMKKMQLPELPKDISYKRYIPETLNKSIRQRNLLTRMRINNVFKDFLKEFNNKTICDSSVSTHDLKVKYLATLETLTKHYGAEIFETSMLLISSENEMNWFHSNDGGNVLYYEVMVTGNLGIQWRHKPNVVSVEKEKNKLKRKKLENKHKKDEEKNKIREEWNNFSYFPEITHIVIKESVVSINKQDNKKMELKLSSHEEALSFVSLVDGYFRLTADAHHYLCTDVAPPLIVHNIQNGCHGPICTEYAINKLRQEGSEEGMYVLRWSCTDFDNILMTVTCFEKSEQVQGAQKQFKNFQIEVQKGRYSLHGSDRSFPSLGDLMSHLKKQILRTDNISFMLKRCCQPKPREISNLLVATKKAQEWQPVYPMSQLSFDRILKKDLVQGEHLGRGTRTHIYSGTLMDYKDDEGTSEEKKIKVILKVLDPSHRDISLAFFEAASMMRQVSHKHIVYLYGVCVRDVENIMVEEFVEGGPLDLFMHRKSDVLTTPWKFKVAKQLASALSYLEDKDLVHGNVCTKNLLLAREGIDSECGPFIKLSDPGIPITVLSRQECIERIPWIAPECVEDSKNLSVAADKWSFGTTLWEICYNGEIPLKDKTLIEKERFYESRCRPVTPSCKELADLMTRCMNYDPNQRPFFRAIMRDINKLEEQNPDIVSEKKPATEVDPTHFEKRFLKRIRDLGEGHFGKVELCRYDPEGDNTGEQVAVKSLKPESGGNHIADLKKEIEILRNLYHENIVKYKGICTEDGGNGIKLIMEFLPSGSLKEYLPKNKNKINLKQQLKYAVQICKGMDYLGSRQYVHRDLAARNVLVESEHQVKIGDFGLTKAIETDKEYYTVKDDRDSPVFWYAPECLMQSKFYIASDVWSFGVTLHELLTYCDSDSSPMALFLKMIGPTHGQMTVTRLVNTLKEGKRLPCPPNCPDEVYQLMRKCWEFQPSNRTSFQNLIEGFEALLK
Source text: Pharmacological Activity of the Compounds of the Invention (1a-10a).
The objective of this study was to assess the activity of novel JAK inhibitors measuring the capability of compounds to inhibit JAK1 kinase activity in a biochemical time-resolved fluorescence resonance energy transfer (TR-FRET) LANCE assay. In LANCE Ultra kinase assay in the presence of JAK1 kinase and ATP (corresponding to Km), the ULight peptide substrate (LANCE Ulight-JAK-1 (Tyr1023) Peptide, Perkin Elmer, TRF0121) was phosphorylated. It was then captured by a Eu-anti-phospho-substrate antibody (LANCE Eu-W1024 Anti-phosphotyrosine (PT66), Perkin Elmer, AD0069), which brought the Eu-chelate donor and ULight acceptor dyes into close proximity. Upon excitation at 320 nm, the Eu-chelate transfers its energy to the ULight dye, resulting in a fluorescent light emission at 665 nm. Inhibitors were tested at 11 consecutive 5-fold dilutions starting from 30 μM (30 μM-[…]) in duplicate. Calculation of IC50 data, curves and QC analysis were made using Excel tools and GraphPadPrism software. QC criteria parameters: Z′≥0.5, Hill Slope range 0.5 to 5, S:B>2.

JAK 2 = JAK 2 (Homo sapiens (Human), UniProt O60674); test: Biochemical potency on JAK2, TR-FRET LANCE Ultra kinase assay (compounds 1-92); details: ATP at Km, read-out: JAK2 inhibitory activity (pIC50 class) (converted)
JAK 2, sequence (O60674 whole entry): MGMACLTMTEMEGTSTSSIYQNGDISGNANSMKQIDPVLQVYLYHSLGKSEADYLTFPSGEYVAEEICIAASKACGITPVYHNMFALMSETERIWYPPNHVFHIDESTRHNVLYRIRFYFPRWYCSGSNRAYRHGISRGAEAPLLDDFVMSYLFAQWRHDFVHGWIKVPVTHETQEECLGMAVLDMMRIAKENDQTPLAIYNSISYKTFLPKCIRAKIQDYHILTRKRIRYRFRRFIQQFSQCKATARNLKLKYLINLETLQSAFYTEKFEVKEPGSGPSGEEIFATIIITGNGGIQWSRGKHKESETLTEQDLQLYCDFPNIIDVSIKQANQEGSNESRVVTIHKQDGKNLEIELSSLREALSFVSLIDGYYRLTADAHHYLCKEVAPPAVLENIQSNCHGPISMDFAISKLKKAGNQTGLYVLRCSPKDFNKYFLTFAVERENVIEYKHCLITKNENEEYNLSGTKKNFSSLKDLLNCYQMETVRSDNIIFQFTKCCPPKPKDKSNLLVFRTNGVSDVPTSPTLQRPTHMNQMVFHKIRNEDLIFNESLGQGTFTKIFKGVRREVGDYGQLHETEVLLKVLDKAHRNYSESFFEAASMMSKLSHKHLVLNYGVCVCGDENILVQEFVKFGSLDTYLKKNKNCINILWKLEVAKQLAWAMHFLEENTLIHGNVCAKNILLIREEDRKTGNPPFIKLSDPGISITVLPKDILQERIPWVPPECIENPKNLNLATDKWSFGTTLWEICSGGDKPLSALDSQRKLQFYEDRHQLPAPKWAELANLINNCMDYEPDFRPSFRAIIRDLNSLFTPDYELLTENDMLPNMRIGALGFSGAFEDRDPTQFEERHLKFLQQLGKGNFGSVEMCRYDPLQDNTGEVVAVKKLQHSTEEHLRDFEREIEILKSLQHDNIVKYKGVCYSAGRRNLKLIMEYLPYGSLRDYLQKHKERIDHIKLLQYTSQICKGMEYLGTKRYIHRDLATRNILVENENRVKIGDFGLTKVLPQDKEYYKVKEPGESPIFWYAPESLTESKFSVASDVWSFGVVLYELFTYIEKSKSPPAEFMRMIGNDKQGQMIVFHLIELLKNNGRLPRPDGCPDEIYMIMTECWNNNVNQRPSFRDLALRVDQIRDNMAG
In short: (§1)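 TR-FRET (LANCE Ultra) phosphorylation of ULight-JAK-1 peptide, ATP at Km: JAK1/JAK2/JAK3/TYK2 peptide 30/50/20/10 nM, ATP 20/0.7/0.2/12 μM, enzyme 0.15/0.083/0.025/0.144 ng/μL. 11-point 5-fold series from 20 μM; 1.5 h RT, EDTA stop, Eu-anti-pTyr detection 1 h; IC50 by variable-slope fit.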

JAK 1 [3] = molecular target: T1, JAK 1; test: Biochemical potency on JAK1, TR-FRET LANCE Ultra kinase assay (compounds 1-92); details: ATP at Km, read-out: JAK1 inhibitory activity (pIC50 class) (converted)
In short: as §1

JAK 3 = JAK 3 (Homo sapiens (Human), UniProt P52333); test: Biochemical potency on JAK3, TR-FRET LANCE Ultra kinase assay (compounds 1-92); details: ATP at Km, read-out: JAK3 inhibitory activity (pIC50 class) (converted)
JAK 3, sequence (P52333 whole entry): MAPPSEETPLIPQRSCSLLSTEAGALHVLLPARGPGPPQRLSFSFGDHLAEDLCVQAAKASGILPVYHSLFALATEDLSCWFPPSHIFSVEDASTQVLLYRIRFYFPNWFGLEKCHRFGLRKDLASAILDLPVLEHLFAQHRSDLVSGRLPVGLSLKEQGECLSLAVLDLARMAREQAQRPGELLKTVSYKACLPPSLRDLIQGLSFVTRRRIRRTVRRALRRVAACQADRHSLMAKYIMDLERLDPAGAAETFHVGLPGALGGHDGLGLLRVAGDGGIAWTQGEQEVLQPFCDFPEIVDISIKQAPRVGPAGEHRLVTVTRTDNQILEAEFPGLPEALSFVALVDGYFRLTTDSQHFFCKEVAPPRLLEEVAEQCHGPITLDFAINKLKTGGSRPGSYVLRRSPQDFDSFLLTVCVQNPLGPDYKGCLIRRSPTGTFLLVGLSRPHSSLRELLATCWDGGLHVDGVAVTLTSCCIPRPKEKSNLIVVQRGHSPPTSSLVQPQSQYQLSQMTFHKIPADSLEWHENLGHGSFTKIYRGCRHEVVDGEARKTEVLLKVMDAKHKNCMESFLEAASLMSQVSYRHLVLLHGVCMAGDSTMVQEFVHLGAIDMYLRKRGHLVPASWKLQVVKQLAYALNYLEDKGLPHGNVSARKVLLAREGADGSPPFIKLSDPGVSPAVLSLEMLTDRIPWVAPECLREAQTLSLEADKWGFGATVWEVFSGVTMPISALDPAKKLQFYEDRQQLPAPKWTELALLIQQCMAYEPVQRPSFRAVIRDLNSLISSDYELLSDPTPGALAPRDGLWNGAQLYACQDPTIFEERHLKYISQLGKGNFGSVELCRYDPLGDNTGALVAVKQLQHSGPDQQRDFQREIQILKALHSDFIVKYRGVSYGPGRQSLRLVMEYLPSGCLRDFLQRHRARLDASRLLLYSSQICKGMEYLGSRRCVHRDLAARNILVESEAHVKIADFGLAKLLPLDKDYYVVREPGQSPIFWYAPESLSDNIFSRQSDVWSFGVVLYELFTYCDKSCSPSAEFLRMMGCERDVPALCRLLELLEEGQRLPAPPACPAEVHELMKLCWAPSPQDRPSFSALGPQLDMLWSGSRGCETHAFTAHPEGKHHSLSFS
In short: as §1

TYK2 = TYK2 (Homo sapiens (Human), UniProt P29597); test: Biochemical potency on Tyk2, TR-FRET LANCE Ultra kinase assay (compounds 1-92); details: ATP at Km, read-out: Tyk2 inhibitory activity (pIC50 class) (converted)
TYK2, sequence (P29597 whole entry): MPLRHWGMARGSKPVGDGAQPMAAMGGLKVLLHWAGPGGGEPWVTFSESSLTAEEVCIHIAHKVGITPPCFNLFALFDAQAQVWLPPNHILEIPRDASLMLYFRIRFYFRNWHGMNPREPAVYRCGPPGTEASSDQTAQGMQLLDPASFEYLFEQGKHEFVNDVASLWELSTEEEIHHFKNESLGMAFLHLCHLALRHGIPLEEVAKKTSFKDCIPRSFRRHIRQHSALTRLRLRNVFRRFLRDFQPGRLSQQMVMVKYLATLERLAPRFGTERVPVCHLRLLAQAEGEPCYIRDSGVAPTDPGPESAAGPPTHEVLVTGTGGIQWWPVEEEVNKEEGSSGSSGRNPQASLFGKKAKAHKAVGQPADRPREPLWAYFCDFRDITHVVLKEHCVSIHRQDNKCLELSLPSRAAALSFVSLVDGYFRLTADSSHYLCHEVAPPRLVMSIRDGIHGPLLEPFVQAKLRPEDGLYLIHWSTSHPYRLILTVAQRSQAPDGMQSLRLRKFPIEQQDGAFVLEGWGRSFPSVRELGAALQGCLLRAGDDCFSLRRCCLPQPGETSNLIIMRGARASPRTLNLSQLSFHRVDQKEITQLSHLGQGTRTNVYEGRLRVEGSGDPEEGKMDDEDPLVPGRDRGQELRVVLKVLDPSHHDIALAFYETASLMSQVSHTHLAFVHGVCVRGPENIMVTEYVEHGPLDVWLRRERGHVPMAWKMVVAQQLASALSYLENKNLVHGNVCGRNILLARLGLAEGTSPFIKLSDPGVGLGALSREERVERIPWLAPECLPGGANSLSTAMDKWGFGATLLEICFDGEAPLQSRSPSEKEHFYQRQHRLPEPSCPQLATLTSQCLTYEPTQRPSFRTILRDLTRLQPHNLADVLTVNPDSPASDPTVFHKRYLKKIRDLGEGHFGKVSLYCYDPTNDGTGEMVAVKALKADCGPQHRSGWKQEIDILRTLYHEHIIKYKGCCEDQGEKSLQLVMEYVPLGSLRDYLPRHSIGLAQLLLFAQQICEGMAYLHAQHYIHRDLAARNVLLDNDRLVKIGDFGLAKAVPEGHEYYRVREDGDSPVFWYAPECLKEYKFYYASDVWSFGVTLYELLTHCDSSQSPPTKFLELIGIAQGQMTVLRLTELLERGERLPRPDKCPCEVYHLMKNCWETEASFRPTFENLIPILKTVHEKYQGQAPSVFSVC
In short: as §1

Row | SMILES | IC50 [1] [nM] | Biochemical Potency JAK 1 (pIC50) (JAK 1 [2]) | IC50 (JAK 2) [nM] | IC50 (JAK 1 [3]) [nM] | IC50 (JAK 3) [nM] | IC50 (TYK2) [nM]
1 | OCc1nn(-c2cc(Cl)ccc2OC(F)F)c2cc(-c3cnn4cccnc34)cnc12 [Example 1a, (1-(5-chloro-2-(difluoromethoxy)phenyl)-6-(pyrazolo[1,5-a]pyrimidin-3-yl)-1H-pyrazolo[4,3-b]pyridin-3-yl)methanol] | 50.1 | 8.1 |  |  |  | 
2 | CN(C)C(=O)Cn1nc(-c2cc(Cl)ccc2OC(F)F)c2cc(-c3cnn4cccnc34)cnc21 [Example 2a, 2-(3-(5-chloro-2-(difluoromethoxy)phenyl)-5-(pyrazolo[1,5-a]pyrimidin-3-yl)-1H-pyrazolo[3,4-b]pyridin-1-yl)-N,N-dimethylacetamide] | 631 | 7.3 |  |  |  | 
3 | COC(=O)c1nn(-c2cc(Cl)ccc2OC(F)F)c2cc(-c3cnn4cccnc34)cnc12 [Example 3a, methyl 1-(5-chloro-2-(difluoromethoxy)phenyl)-6-(pyrazolo[1,5-a]pyrimidin-3-yl)-1H-pyrazolo[4,3-b]pyridine-3-carboxylate] |  | 8.1 |  |  |  | 
4 | CN(C)C(=O)Cc1nn(-c2cc(Cl)ccc2OC(F)F)c2cc(-c3cnn4cccnc34)cnc12 [Example 4a, 2-(1-(5-chloro-2-(difluoromethoxy)phenyl)-6-(pyrazolo[1,5-a]pyrimidin-3-yl)-1H-pyrazolo[4,3-b]pyridin-3-yl)-N,N-dimethylacetamide] | 316 | 7.8 |  |  |  | 
5 | O=C(O)Cc1nn(-c2cc(Cl)ccc2OC(F)F)c2cc(-c3cnn4cccnc34)cnc12 [Example 5a, 2-(1-(5-chloro-2-(difluoromethoxy)phenyl)-6-(pyrazolo[1,5-a]pyrimidin-3-yl)-1H-pyrazolo[4,3-b]pyridin-3-yl)acetic acid] | 6310 | 7.7 |  |  |  | 
6 | Cc1nn(-c2cc(Cl)ccc2OC(F)F)c2cc(-c3cnc4cccnn34)ncc12 [Example 6a, 1-(5-chloro-2-(difluoromethoxy)phenyl)-6-(imidazo[1,2-b]pyridazin-3-yl)-3-methyl-1H-pyrazolo[4,3-c]pyridine] |  | 8.4 |  |  |  | 
7 | Cc1nn(-c2cc(Cl)ccc2OC(F)F)c2cc(-c3cnn4cccnc34)ncc12 [Example 7a, 1-(5-chloro-2-(difluoromethoxy)phenyl)-3-methyl-6-(pyrazolo[1,5-a]pyrimidin-3-yl)-1H-pyrazolo[4,3-c]pyridine] | 39.8 | 8.5 |  |  |  | 
8 | Cc1nn(Cc2ccc(Cl)cc2F)c2cc(-c3cnc4cccnn34)cnc12 [Example 8a, 1-(4-chloro-2-fluorobenzyl)-6-(imidazo[1,2-b]pyridazin-3-yl)-3-methyl-1H-pyrazolo[4,3-b]pyridine] | 794 | 6.7 |  |  |  | 
9 | Cc1nn(-c2cc(Cl)ccc2OC(F)F)c2cc(-c3cnn4cccnc34)cnc12 [Example 9a, 1-(5-chloro-2-(difluoromethoxy)phenyl)-3-methyl-6-(pyrazolo[1,5-a]pyrimidin-3-yl)-1H-pyrazolo[4,3-b]pyridine] | 50.1 | 7.8 |  |  |  | 
10 | Cc1nn(C2CCCN(C(=O)CC#N)C2)c2cc(-c3cnn4cccnc34)cnc12 (stereo not shown) [Example 10a, 3-(3-(3-methyl-6-(pyrazolo[1,5-a]pyrimidin-3-yl)-1H-pyrazolo[4,3-b]pyridin-1-yl)piperidin-1-yl)-3-oxopropanenitrile] | 6310 | 6.0 |  |  |  | 
11 | COc1cc(NS(=O)(=O)c2cnn(C)c2)ccc1-n1nc(C)c2cnc(Nc3ncc[nH]c3=O)cc21 [Example 86, N-(3-methoxy-4-(3-methyl-6-((3-oxo-3,4-dihydropyrazin-2-yl)amino)-1H-pyrazolo[4,3-c]pyridin-1-yl)phenyl)-1-methyl-1H-pyrazole-4-sulfonamide] |  |  | ≤ 5.01 | 5.01 to 50.1 | ≤ 5.01 | 5.01 to 50.1
12 | COc1cc(NS(C)(=O)=O)ccc1-n1nc(NCCN2CCOCC2)c2cnc(Nc3ncc[nH]c3=O)cc21 [Example 87, N-(3-methoxy-4-(3-((2-morpholinoethyl)amino)-6-((3-oxo-3,4-dihydropyrazin-2-yl)amino)-1H-pyrazolo[4,3-c]pyridin-1-yl)phenyl)methanesulfonamide] |  |  | ≤ 5.01 | ≤ 5.01 | ≤ 5.01 | ≤ 5.01
13 | CCCS(=O)(=O)Nc1ccc(-n2nc(NCCN3CCCCC3)c3cnc(Nc4ncc[nH]c4=O)cc32)c(OC)c1 [Example 88, N-(3-methoxy-4-(6-((3-oxo-3,4-dihydropyrazin-2-yl)amino)-3-((2-(piperidin-1-yl)ethyl)amino)-1H-pyrazolo[4,3-c]pyridin-1-yl)phenyl)propane-1-sulfonamide] |  |  | ≤ 5.01 | ≤ 5.01 | ≤ 5.01 | 5.01 to 50.1
14 | CCCS(=O)(=O)Nc1ccc(-n2nc(NCCN3CCOCC3)c3cnc(Nc4ncc[nH]c4=O)cc32)c(OC(F)F)c1 [Example 89, N-(3-(difluoromethoxy)-4-(3-((2-morpholinoethyl)amino)-6-((3-oxo-3,4-dihydropyrazin-2-yl)amino)-1H-pyrazolo[4,3-c]pyridin-1-yl)phenyl)propane-1-sulfonamide] |  |  | ≤ 5.01 | ≤ 5.01 | ≤ 5.01 | 5.01 to 50.1
15 | COc1cc(NS(C)(=O)=O)ccc1-n1nc(NCCN2C3CCC2COC3)c2cnc(Nc3ncc[nH]c3=O)cc21 [Example 90, N-(4-(3-((2-(3-oxa-8-azabicyclo[3.2.1]octan-8-yl)ethyl)amino)-6-((3-oxo-3,4-dihydropyrazin-2-yl)amino)-1H-pyrazolo[4,3-c]pyridin-1-yl)-3-methoxyphenyl)methanesulfonamide] |  |  | ≤ 5.01 | ≤ 5.01 | ≤ 5.01 | ≤ 5.01
16 | CCCS(=O)(=O)Nc1ccc(-n2nc(NC)c3cnc(Nc4ncc[nH]c4=O)cc32)c(OC)c1 [Example 91, N-(3-methoxy-4-(3-(methylamino)-6-((3-oxo-3,4-dihydropyrazin-2-yl)amino)-1H-pyrazolo[4,3-c]pyridin-1-yl)phenyl)propane-1-sulfonamide] |  |  | ≤ 5.01 | ≤ 5.01 | ≤ 5.01 | 5.01 to 50.1
17 | COc1cc(CNS(C)(=O)=O)ccc1-n1nc(NCCN2CCOCC2)c2cnc(Nc3ncc[nH]c3=O)cc21 [Example 92, N-(3-methoxy-4-(3-((2-morpholinoethyl)amino)-6-((3-oxo-3,4-dihydropyrazin-2-yl)amino)-1H-pyrazolo[4,3-c]pyridin-1-yl)benzyl)methanesulfonamide] |  |  | ≤ 5.01 | ≤ 5.01 | ≤ 5.01 | ≤ 5.01
